{"source": "paper PMC12494798", "about": "“Anle138b binds predominantly to the central cavity in lipidic Aβ₄₀ fibrils and modulates fibril formation” (Nature Communications, 2025)", "target": "T1, Aβ₄₀ (L1 lipidic Aβ₄₀ fibril, amyloid beta 1-40) (Homo sapiens, UniProt P05067)", "T1 construct": "gene APP; Aβ(1-40), type 1 lipidic (L1) fibril of two protofilaments", "T1 sequence (P05067 672-711)": "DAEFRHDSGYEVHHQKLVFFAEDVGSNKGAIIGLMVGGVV", "test": "ITC on preformed L1 fibrils; supported by DNP-enhanced NHHC ssNMR contacts, (H)CANH titration and cryo-EM density", "type": "binding"}
{"smiles": "Brc1cccc(-c2cc(-c3ccc4c(c3)OCO4)n[nH]2)c1", "note": "[anle138b, 3-(1,3-benzodioxol-5-yl)−5-(3-bromophenyl)−1H-pyrazole]", "values": [{"measurement": "Kd", "value": 640, "unit": "nM"}]}
